Assay results reported in US10722575B2, “Use of 1,3-diphenylprop-2-en-1-one derivatives for treating liver disorders” (GENFIT, priority 2009, dated 2020).
Marks after values point to notes of the source that are not given here.

How the values were obtained:
[1] = tested on: hApoE2 KI/PPARalpha KO mice; test: hApoE2 KI/PPARalpha KO mice on Western diet, hepatic gene expression by quantitative RT-PCR; assay type: in vivo; details: 30 mg/kg/day by gavage, 6 weeks
Method: (§1) The compounds of the General Formula (I) were tested in vivo in a high fat diet mice model. Dyslipidemic “humanized” hApoE2 KI deficient for PPARalpha were fed a Western diet and treated during 6 weeks. The compounds of interest, including the Compound 29 of WO 2004/005233 at 30 mg/kg/day and the Compound 1 of WO 2007/147879 at 30 mg/kg/day were orally administrated by gavage. At the end of the protocol, animals were sacrificed, livers were harvested and the hepatic expression of relevant genes implicated in the liver inflammation and the fibrosis processes were evaluated by quantitative RT-PCR. In parallel, liver triglycerides contents were evaluated (Panels A-D). Statistical analysis was performed as indicated for FIG. 1.
(§2) Animals were fed a Western diet (20% saturated fat and 0.2% cholesterol, Harlan Teklad TD88137) during 2 weeks in the first study, that involved the daily administration of Cpd 29 (at 30 mg/kg/day by oral gavage), and during 6 weeks in the second study, that involved the daily administration of Compound 1 of WO 2007147879 (Cpd1, at 30 mg/kg/day by oral gavage). Control animals were treated with vehicle only (Carboxymethlycellulose 1%+Tween-80 0.1%). Animals had access to food and water ad libitum.
At the end of the studies, the animals were weighed and sacrificed under anesthesia. Blood was collected from the retro-orbital sinus; plasma was obtained by centrifugation (4 000 rpm, at 4° C. for 15 min) and subsequently frozen and stored at −20° C. Tissues and livers were isolated and snap-frozen in liquid nitrogen and stored at −80° C. for subsequent analysis (gene expression and biochemistry) or fixed in 4% paraformaldehyde for histology.
Total RNA was isolated from frozen livers using the NucleoSpin® 96 RNA kit (Macherey Nagel), according to the manufacturer's instructions. Reverse transcription was performed on 1 μg of total RNA by action of 1 μl of MMLV-RT enzyme (Invitrogen) during 1 hour at 37° C. in a total volume of 30 μl. The reaction conditions were 1× buffer (Invitrogen), 1.5 mM DTT (Invitrogen), 0.18 mM dNTPs (Promega), 200 ng pdN6 (Amersham), 30U RNase inhibitor (Promega). Quantitative PCR was then carried out using the MyiQ Single-Color Real-Time PCR Detection System (Biorad). Briefly PCR reactions were performed in 96 well plates on 5 μl of diluted reverse transcription mix using the iQ SYBR Green Supermix kit. The reaction conditions were: 25 μl of volume reaction, 3 mM of MgCl2, and 0.5 μl of each reverse and forward primer solutions (10 pMol), Tm of 60° C.
The quantity of fluorescence emitted is directly proportional to the quantity of complementary DNA present at the start of the reaction and amplified during the PCR. The relative levels of expression were determined using the standard curve for each transcript. The results were then normalized in regard to the signals obtained with the 36B4 control (a reference transcript for hepatic gene expression). The induction factor, i.e. the ratio between the relative signal induced by the compound according to the invention and the average of the values relating to the control group, was then calculated for each sample. The higher this factor, the more the compound promotes target gene expression. The final result is depicted as the average of the induction values in each experimental group.
(§3) In another study, the liver-specific anti-inflammatory and anti-fibrotic properties effects of Cpd 29 and Compound 1 of WO 2007/147879 (Cpd 1) were evaluated in the hApoE2 KI/PPARalpha KO mice that were fed a Western diet and daily treated with the selected compounds during 6 weeks.

[2] = tested on: hApoE2 KI/PPARalpha KO mice; test: hApoE2 KI/PPARalpha KO mice on Western diet, hepatic lipid analysis (liver triglycerides); assay type: in vivo; details: 30 mg/kg/day by gavage, 6 weeks, FIG. 4D
Method: as §1
as §2, with “Control animals were treated with vehicle only (Carboxymethlycellulose 1%+Tween-80 0.1%). Animals had access to food and water ad libitum.” left out
as §3

[3] = tested on: human primary hepatic stellate cells (hHSC); test: PDGF-BB-induced hHSC proliferation, BrdU incorporation; assay type: cell-based; details: PDGF-BB 10 ng/ml; for Inhibition of the PDGF-BB-induced hHSC proliferation: BrdU Incorporation: 10 μM
Method: (§4) Compounds were dissolved in dimethyl sulfoxide (DMSO, Fluka cat #41640)
(§5) The human primary hepatic stellate cells (hHSC) (ScienCell) were cultured in STeCM medium (ScienCell cat #5301) that was supplemented with 2% fetal bovine serum (FBS, ScienCell cat #0010), 1% penicillin/streptomycine (ScienCell cat #0503) and stellate cell growth supplement (SteCGS; ScienCell cat #5352). Culture plastics were coated with Poly-L Lysine (Sigma cat # P4707).
hHSC were plated at a density of 1.2×10^4 cells/well into 96-well plates and were cultured overnight at 37° C. and 5% CO2, followed by washing of cells with PBS (Invitrogen cat #14190) and replacing the growth medium with a serum-free and SteCGS-free medium for an additional 24 hours. For PDGF-induced proliferation assay, cells were pre-treated with a compound of General Formula (I) for 1 hour before the addition of PDGF-BB (10 ng/ml; R&D Systems cat #520-BB). Treatments were then continued for additional 20 hours.
Cell proliferation was measured by bromodeoxyuridine (BrdU) incorporation using a BrdU labeling and detection kit (Roche cat #11647229001). BrdU labeling solution was added to cells, followed by incubation for another 4 hours before fixation, addition of nucleases, addition of anti-BrdU-POD and peroxidase substrate. The absorbance at 405 nm (with a reference wavelength at 690 nm) was measured using an ELISA plate reader (Tecan).

[4] = tested on: human primary hepatic stellate cells (hHSC); test: TGFβ1-induced hHSC activation, gene expression by quantitative PCR; assay type: cell-based; details: TGFβ1 1 ng/ml, 24 hours; for inhibition at 10 µM: Homo sapiens; for Inhibition of the TGFβ1-induced hHSC activation: Col1α1 / Inhibition of the TGFβ1-induced hHSC activation: Col4α1 / Inhibition of the TGFβ1-induced hHSC activation: αSMA: 10 μM
Method: as §4, §5
The human primary hepatic stellate cells (hHSC) (ScienCell) were cultured under standard conditions, as described above. For experiments to determine gene expression patterns, hHSC were plated at a density of 7×10^4 cells/well into 24-well plates and were cultured overnight. Next day, culture medium was replaced by serum-free and SteCGS-free medium for an additional 16 hours. Cells were treated with a compound of General Formula (I) in addition to TGFβ1 (1 ng/ml) in a serum-free and SteCGS-free medium for 24 hours.
Total RNA was isolated using Nucleospin® 96 RNA kit (Macherey Nagel) following manufacturer's instructions. 100 ng of total RNA were reverse transcribed in cDNA using M-MLV RT (Moloney Murine Leukemia Virus Reverse Transcriptase) (Invitrogen cat #28025) in presence of RT buffer 1× (Invitrogen), 1 mM DTT (Invitrogen), 0.18 mM dNTPs (Promega), 200 ng pdN6 (Amersham) and 30U of RNase inhibitor (Promega).
Quantitative PCR was then carried out using the CFX96 TOUCH™ Real-Time PCR Detection System (Biorad). Briefly, PCR reactions were performed in 96 well plates on 5 μl of 5× diluted reverse transcription mix using the iQ SYBR Green Supermix kit. The experimental conditions were: 25 μl of volume reaction, 3 mM of MgCl2, and 0.5 μl each of reverse and forward primers (10 pMol).
Expression levels were normalized using the expression of 36B4 gene as reference (sequences SEQ ID NO: 1 and SEQ ID NO: 2 as shown above).
For each gene, the standard curves were drawn by selecting the best points (at least three points) in order to have PCR reaction efficiency close to 100% and a correlation coefficient close to 1. Expression levels were determined using the standard curve equation for both the housekeeping gene and the target gene (taking into account the specific PCR efficiency of each target gene).

| Compound | Inhibition of the PDGF-BB-induced hHSC proliferation: BrdU Incorporation [3] | Inhibition of the TGFβ1-induced hHSC activation: Col1α1 [4] | Inhibition of the TGFβ1-induced hHSC activation: Col4α1 [4] | Inhibition of the TGFβ1-induced hHSC activation: αSMA [4] | also measured |
| --- | --- | --- | --- | --- | --- |
| CSc1ccc(C(=O)CCc2cc(C)c(OC(C)(C)C(=O)O)c(C)c2)cc1 [Cpd 1, 2-[2,6-dimethyl-4-[3-[4-(methylthio)phenyl]-3-oxo-propyl]phenoxy]-2-methylpropanoic acid] | – | – | – | – | liver expression of TNFα ([1]; FIG. 4A): inhibited; liver expression of TGFβ ([1]; FIG. 4B): inhibited; liver expression of collagen ([1]; FIG. 4C): inhibited; triglycerides accumulation in the liver [2]: prevented |
| CSc1ccc(C(=O)C=Cc2cc(C)c(OCC(=O)O)c(C)c2)cc1 [Cpd 72 US20070032543, 1-[4-methylthiophenyl]-3-[3,5-dimethyl-4-carboxymethyloxyphenyl]prop-2-en-1-one] | – | – | – | – | inhibition at 10 µM ([3]; Homo sapiens): 126%; inhibition at 10 µM ([4]; read-out: Inhibition of the TGFβ1-induced hHSC activation: Col1α1): 37%; inhibition at 10 µM ([4]; read-out: Inhibition of the TGFβ1-induced hHSC activation: Col4α1): 51%; inhibition at 10 µM ([4]; read-out: Inhibition of the TGFβ1-induced hHSC activation: αSMA): 74% |
| CSc1ccc(C(=O)C=Cc2cc(C(C)C)c(OCC(=O)O)c(C(C)C)c2)cc1 [Cpd 74 US20070032543, 1-[4-methylthiophenyl]-3-[3,5-diisopropyl-4-carboxymethyloxyphenyl]prop-2-en-one] | −127% *** | −82% *** | −85% *** | −97% *** | – |
| COc1ccc(C(=O)C=Cc2cc(C)c(OC(C)(C)C(=O)O)c(C)c2)cc1 [Cpd 80 US20070032543, 1-[4-methyoxyphenyl]-3-[3,5-dimethyl-4-carboxydimethylmethyloxyphenyl]prop-2-en-1-one] | −136% *** | −64% ** | −66% *** | −55% *** | – |
| CCCCCCSc1ccc(C(=O)C=Cc2cc(C)c(OC(C)(C)C(=O)O)c(C)c2)cc1 [Cpd 84 US20070032543, 1-[4-hexylthiophenyl]-3-[3,5-dimethyl-4-carboxydimethylmethyloxyphenyl]prop-2-en-1-one] | −33% | −60% ** | −64% *** | −64% *** | – |
